Laboratory results reported in patent US20140235533A1, “DIHYDROFURAN DERIVATIVES AS INSECTICIDAL COMPOUNDS” (SYNGENTA PARTICIPATIONS AG, priority 2011, published 2014).

Legend:
Format in all cases: in vivo
[1] = tested on: Heliothis virescens; experiment: Heliothis virescens (tobacco budworm) egg test on artificial diet; conditions: 96 h, 200 ppm (concentration in well 18 ppm), eggs 0-24 h old on artificial diet, egg mortality, larval mortality, growth regulation after 4 days
Protocol: Heliothis virescens (Tobacco Budworm):
Eggs (0-24 h old) were placed in 24-well microtiter plate on artificial diet and treated with test solutions at an application rate of 200 ppm (concentration in well 18 ppm) by pipetting. After an incubation period of 4 days, samples were checked for egg mortality, larval mortality, and growth regulation. The following compound gave at least 80% control of Heliothis virescens: A1, A2, A03, A05, A06, A07, A08, A09, A10, A11, A12, A13, A14, A15, A16, A17, A18, A19, A20, A21, A22, A25, A26, A27, A31, A32, A34, A37, A39, A40, A42, A44, A45, A46, A47, A48, A49, A50, A51, A52, A53, B1**.

[2] = tested on: Spodoptera littoralis; experiment: Spodoptera littoralis (Egyptian cotton leafworm) cotton leaf disc spray test; conditions: foliar, 72 h, 200 ppm spray on cotton leaf discs, 5 L1 larvae, mortality, feeding behavior, growth regulation 3 days after treatment
Text: Spodoptera littoralis (Egyptian Cotton Leafworm) Cotton leaf discs were placed on agar in a 24-well microtiter plate and sprayed with test solutions at an application rate of 200 ppm. After drying, the leaf discs were infested with 5 L1 larvae. The samples were checked for mortality, feeding behavior, and growth regulation 3 days after treatment (DAT).

[3] = tested on: Plutella xylostella; experiment: Plutella xylostella (diamond back moth) artificial diet MTP test; conditions: 144 h, 200 ppm (concentration in well 18 ppm), L2 larvae, larval mortality and growth regulation after 6 days
Protocol: (§1) Plutella xylostella (Diamond Back Moth): 24-well microtiter plate (MTP) with artificial diet was treated with test solutions at an application rate of 200 ppm (concentration in well 18 ppm) by pipetting. After drying, the MTPs were infested with L2 larvae (7-12 per well). After an incubation period of 6 days, samples were checked for larval mortality and growth regulation.

[4] = tested on: Diabrotica balteata; experiment: Diabrotica balteata (corn root worm) artificial diet MTP test; conditions: 120 h, 200 ppm (concentration in well 18 ppm), L2 larvae, larval mortality and growth regulation after 5 days
Protocol: as §1, with “Diabrotica balteata (Corn Root Worm): A” for “Plutella xylostella (Diamond Back Moth):”, “(6-10” for “(7-12”, “5” for “6”

SMILES	pest or weed control at 200 ppm [1] [%]	pest or weed control at 200 ppm [2] [%]	pest or weed control at 200 ppm [3] [%]	pest or weed control at 200 ppm [4] [%]
O=C(NCc1ccc(C2=COC(c3cc(Cl)cc(Cl)c3)(C(F)(F)F)C2)cc1Cl)c1ccc(-c2ccccn2)s1 (centres unmarked) [Compound A42, N-[[2-chloro-4-[2-(3,5-dichlorophenyl)-2-(trifluoromethyl)-3H-furan-4-yl]phenyl]methyl]-5-(2-pyridyl)thiophene-2-carboxamide]	≥ 80			
O=C(NCc1ccc(C2=COC(c3cc(Cl)cc(Cl)c3)(C(F)(F)F)C2)cc1Cl)c1cccs1 (centres unmarked) [Compound A44, N-[[2-chloro-4-[2-(3,5-dichlorophenyl)-2-(trifluoromethyl)-3H-furan-4-yl]phenyl]methyl]thiophene-2-carboxamide]	≥ 80	≥ 80	≥ 80	≥ 80
O=C(NCc1ccc(C2=COC(c3cc(Cl)cc(Cl)c3)(C(F)(F)F)C2)cc1Cl)c1cc(Cl)ccc1Cl (centres unmarked) [Compound A28, 2,5-dichloro-N-[[2-chloro-4-[2-(3,5-dichlorophenyl)-2-(trifluoromethyl)-3H-furan-4-yl]phenyl]methyl]benzamide]			≥ 80	
CCSC(SCC)C(=O)NCc1ccc(C2=COC(c3cc(Cl)cc(Cl)c3)(C(F)(F)F)C2)cc1Cl (centres unmarked) [Compound A53, N-[[2-chloro-4-[2-(3,5-dichlorophenyl)-2-(trifluoromethyl)-3H-furan-4-yl]phenyl]methyl]-2,2-bis(ethylsulfanyl)acetamide]	≥ 80	≥ 80	≥ 80	≥ 80
O=C(CCN1C(=O)c2ccccc2C1=O)NCc1ccc(C2=COC(c3cc(Cl)cc(Cl)c3)(C(F)(F)F)C2)cc1Cl (centres unmarked) [Compound A22, N-[[2-chloro-4-[2-(3,5-dichlorophenyl)-2-(trifluoromethyl)-3H-furan-4-yl]phenyl]methyl]-3-(1,3-dioxoisoindolin-2-yl)propanamide]	≥ 80	≥ 80	≥ 80	≥ 80
O=C(CCC(=O)c1ccccc1)NCc1ccc(C2=COC(c3cc(Cl)cc(Cl)c3)(C(F)(F)F)C2)cc1Cl (centres unmarked) [Compound A13, N-[[2-chloro-4-[2-(3,5-dichlorophenyl)-2-(trifluoromethyl)-3H-furan-4-yl]phenyl]methyl]-4-oxo-4-phenyl-butanamide]	≥ 80	≥ 80	≥ 80	
O=C(NCc1ccc(C2=COC(c3cc(Cl)cc(Cl)c3)(C(F)(F)F)C2)cc1Cl)c1c[nH]cn1 (centres unmarked) [Compound A31, N-[[2-chloro-4-[2-(3,5-dichlorophenyl)-2-(trifluoromethyl)-3H-furan-4-yl]phenyl]methyl]-1H-imidazole-4-carboxamide]	≥ 80	≥ 80	≥ 80	
O=C(NCc1ccc(C2=COC(c3cc(Cl)cc(Cl)c3)(C(F)(F)F)C2)cc1Cl)c1ccc2sccc2c1 (centres unmarked) [Compound A37, N-[[2-chloro-4-[2-(3,5-dichlorophenyl)-2-(trifluoromethyl)-3H-furan-4-yl]phenyl]methyl]benzothiophene-5-carboxamide]	≥ 80			
CSC1(C(=O)NCc2ccc(C3=COC(c4cc(Cl)cc(Cl)c4)(C(F)(F)F)C3)cc2Cl)CC1 (centres unmarked) [Compound A49, N-[[2-chloro-4-[2-(3,5-dichlorophenyl)-2-(trifluoromethyl)-3H-furan-4-yl]phenyl]methyl]-1-methylsulfanyl-cyclopropanecarboxamide]	≥ 80	≥ 80	≥ 80	
O=C(NCc1ccc(C2=COC(c3cc(Cl)cc(Cl)c3)(C(F)(F)F)C2)cc1Cl)c1ccc2c(c1)OCCCO2 (centres unmarked) [Compound A32, N-[[2-chloro-4-[2-(3,5-dichlorophenyl)-2-(trifluoromethyl)-3H-furan-4-yl]phenyl]methyl]-3,4-dihydro-2H-1,5-benzodioxepine-7-carboxamide]	≥ 80			
O=C(NCc1ccc(C2=COC(c3cc(Cl)cc(Cl)c3)(C(F)(F)F)C2)cc1Cl)c1cnnc2ccccc12 (centres unmarked) [Compound A34, N-[[2-chloro-4-[2-(3,5-dichlorophenyl)-2-(trifluoromethyl)-3H-furan-4-yl]phenyl]methyl]cinnoline-4-carboxamide]	≥ 80		≥ 80	
O=C(NCc1ccc(C2=COC(c3cc(Cl)cc(Cl)c3)(C(F)(F)F)C2)cc1Cl)c1ncoc1-c1ccccc1 (centres unmarked) [Compound A38, N-[[2-chloro-4-[2-(3,5-dichlorophenyl)-2-(trifluoromethyl)-3H-furan-4-yl]phenyl]methyl]-5-phenyl-oxazole-4-carboxamide]		≥ 80		
O=C(COc1ccc(Cl)cc1)NCc1ccc(C2=COC(c3cc(Cl)cc(Cl)c3)(C(F)(F)F)C2)cc1Cl (centres unmarked) [Compound A25, N-[[2-chloro-4-[2-(3,5-dichlorophenyl)-2-(trifluoromethyl)-3H-furan-4-yl]phenyl]methyl]-2-(4-chlorophenoxy)acetamide]	≥ 80			
O=C(CCc1ccccc1)NCc1ccc(C2=COC(c3cc(Cl)cc(Cl)c3)(C(F)(F)F)C2)cc1Cl (centres unmarked) [Compound A09, N-[[2-chloro-4-[2-(3,5-dichlorophenyl)-2-(trifluoromethyl)-3H-furan-4-yl]phenyl]methyl]-3-phenyl-propanamide]	≥ 80		≥ 80	≥ 80
O=C(NCc1ccc(C2=COC(c3cc(Cl)cc(Cl)c3)(C(F)(F)F)C2)cc1Cl)c1ccc2nsnc2c1 (centres unmarked) [Compound A21, N-[[2-chloro-4-[2-(3,5-dichlorophenyl)-2-(trifluoromethyl)-3H-furan-4-yl]phenyl]methyl]-2,1,3-benzothiadiazole-5-carboxamide]	≥ 80			
O=C(CSc1nc2ccccc2[nH]1)NCc1ccc(C2=COC(c3cc(Cl)cc(Cl)c3)(C(F)(F)F)C2)cc1Cl (centres unmarked) [Compound A12, 2-(1H-benzimidazol-2-ylsulfanyl)-N-[[2-chloro-4-[2-(3,5-dichlorophenyl)-2-(trifluoromethyl)-3H-furan-4-yl]phenyl]methyl]acetamide]	≥ 80		≥ 80	
Cc1onc(-c2ccccc2)c1C(=O)NCc1ccc(C2=COC(c3cc(Cl)cc(Cl)c3)(C(F)(F)F)C2)cc1Cl (centres unmarked) [Compound A45, N-[[2-chloro-4-[2-(3,5-dichlorophenyl)-2-(trifluoromethyl)-3H-furan-4-yl]phenyl]methyl]-5-methyl-3-phenyl-isoxazole-4-carboxamide]	≥ 80			
O=C(NCc1ccc(C2=COC(c3cc(Cl)cc(Cl)c3)(C(F)(F)F)C2)cc1Cl)c1ccc(O)c(F)c1 (centres unmarked) [Compound A52, N-[[2-chloro-4-[2-(3,5-dichlorophenyl)-2-(trifluoromethyl)-3H-furan-4-yl]phenyl]methyl]-3-fluoro-4-hydroxy-benzamide]	≥ 80		≥ 80	
O=C(/C=C/c1ccccc1Cl)NCc1ccc(C2=COC(c3cc(Cl)cc(Cl)c3)(C(F)(F)F)C2)cc1Cl (centres unmarked) [Compound A17, (E)-N-[[2-chloro-4-[2-(3,5-dichlorophenyl)-2-(trifluoromethyl)-3H-furan-4-yl]phenyl]methyl]-3-(2-chlorophenyl)prop-2-enamide]	≥ 80			
O=C(/C=C/c1ccccc1F)NCc1ccc(C2=COC(c3cc(Cl)cc(Cl)c3)(C(F)(F)F)C2)cc1Cl (centres unmarked) [Compound A16, (E)-N-[[2-chloro-4-[2-(3,5-dichlorophenyl)-2-(trifluoromethyl)-3H-furan-4-yl]phenyl]methyl]-3-(2-fluorophenyl)prop-2-enamide]	≥ 80			
O=C(/C=C/c1ccco1)NCc1ccc(C2=COC(c3cc(Cl)cc(Cl)c3)(C(F)(F)F)C2)cc1Cl (centres unmarked) [Compound A10, (E)-N-[[2-chloro-4-[2-(3,5-dichlorophenyl)-2-(trifluoromethyl)-3H-furan-4-yl]phenyl]methyl]-3-(2-furyl)prop-2-enamide]	≥ 80		≥ 80	
CSc1ccc(C(=O)NCc2ccc(C3=COC(c4cc(Cl)cc(Cl)c4)(C(F)(F)F)C3)cc2Cl)cc1 (centres unmarked) [Compound A27, N-[[2-chloro-4-[2-(3,5-dichlorophenyl)-2-(trifluoromethyl)-3H-furan-4-yl]phenyl]methyl]-4-methylsulfanyl-benzamide]	≥ 80			≥ 80
